Data: publication PMC9166766 (Experimental & Molecular Medicine, 2022)

Tests used:
[1] = system: Jurkat T cells (PMA and ionomycin-induced gene expression); experiment: mRNA sequencing of activated Jurkat T cells; assay type: cell-based, human; settings: P+I 8 h
Experimental: We then extracted RNA from these cells. Construction of the cDNA library and next-generation sequencing was performed at LAS (Gimpo, Korea). We sequenced all samples on an Illumina NextSeq 500 system with 75 paired-end reads. For the RNA sequencing analysis, reads for each sample were aligned to the human genome (GRCh37/hg19 genome assembly) using STAR 2.4.0.1[25] with default settings. We used HOMER tools to quantify and normalize the defined genes in RefSeq transcripts. FPKM normalized genes were hierarchically clustered using Cluster3.0[26]. We visualized refined data with Java Treeview (http://jtreeview.sourceforge.net). We conducted gene ontology analysis of each cluster using the DAVID web tool (https://david.ncifcrf.gov). Finally, we visualized the expression levels of target genes using the Integrative Genomics Viewer (http://software.broadinstitute.org/software/igv). The raw data were submitted to the NCBI Gene Expression Omnibus under accession number GSE185561.
Fig. 3 The CABIN1 peptide inhibits T-cell activation. a Heatmap of altered genes affected by FK506 treatment or CABIN1 peptide expression upon T-cell activation. b Gene Ontology analysis of cluster III. c mRNA expression levels of genes included in cluster III. d qRT-PCR data of genes in c. The experiment was independently repeated at least three times, and the data are presented as the mean ± standard deviation. Statistical differences were determined using two-tailed Student’s t-test. *p < 0.05, **p < 0.01, ***p < 0.001, NC negative control.

[2] = system: tNFATC2 nuclear import; experiment: Nuclear localization of EGFP-tNFATC2 by confocal microscopy in Jurkat T cells; assay type: cell-based; settings: 40 nM PMA and 1 μM ionomycin 4 h, FK506 0.5 μM, n = 10-12
Experimental: We transfected Jurkat T cells with the pCAG-EGFP-tNFATC2-IRES-mCherry-peptide by electroporation. After two days, we pretreated these cells with 0.5 μM FK506 for 30 min. Then, we treated them with 40 nM PMA and 1 μM ionomycin under culture conditions for 4 h. Before imaging by a confocal laser scanning microscope (Nikon, Tokyo, Japan), we treated the cells with 10 μg/ml Hoechst 33342 (Invitrogen, Waltham, MA, USA) to stain nuclei. Colocalization analysis of mCherry and Hoechst was performed with ImageJ and its plugin JACoP to measure the Manders coefficient[23],[24].
Scale bar, 50 μm e Nuclear-localized tNFATC2 was measured by calculating the colocalization ratio between Hoechst (M1) and EGFP (M2).

`C=CC[C@@H]1/C=C(\C)C[C@H](C)C[C@H](OC)[C@H]2O[C@@](O)(C(=O)C(=O)N3CCCC[C@H]3C(=O)O[C@H](/C(C)=C/[C@@H]3CC[C@@H](O)[C@H](OC)C3)[C@H](C)[C@@H](O)CC1=O)[C@H](C)C[C@@H]2OC` [FK506, reference compound] gave an LOC729603 expression ([1]; NC 1.468, NC_P+I 5.071) of 2.179 FPKM, a PDGFA expression ([1]; NC 1.497, NC_P+I 26.809) of 3.25 FPKM and a PHACTR2 expression ([1]; NC 1.659, NC_P+I 9.467) of 2.927 FPKM. It also gave a CABP1 expression ([1]; NC 1.702, NC_P+I 5.834) of 1.201 FPKM, a POU2AF1 expression ([1]; NC 1.84, NC_P+I 36.298) of 2.274 FPKM and an SPRY1 expression ([1]; NC 2.079, NC_P+I 12.391) of 4.074 FPKM. The GFOD1 expression ([1]; NC 2.283, NC_P+I 12.861) was 4.187 FPKM, the DSTYK expression ([1]; NC 2.356, NC_P+I 7.198) was 3.501 FPKM and the FMNL2 expression ([1]; NC 2.395, NC_P+I 6.813) was 2.726 FPKM. It also gave an ADORA2A expression ([1]; NC 2.492, NC_P+I 11.633) of 0.998 FPKM, a CD27 expression ([1]; NC 2.525, NC_P+I 27.462) of 3.098 FPKM and a TNFRSF4 expression ([1]; NC 2.597, NC_P+I 31.683) of 2.933 FPKM. The REL expression ([1]; NC 2.654, NC_P+I 20.219) was 4.749 FPKM, the JAK2 expression ([1]; NC 2.788, NC_P+I 26.566) was 5.248 FPKM and the LRRC8B expression ([1]; NC 2.89, NC_P+I 28.699) was 3.555 FPKM. For the same compound, the NPDC1 expression ([1]; NC 3.008, NC_P+I 8.759) was 4.328 FPKM, the CD27-AS1 expression ([1]; NC 3.088, NC_P+I 14.958) was 5.11 FPKM and the CST7 expression ([1]; NC 3.315, NC_P+I 14.15) was 2.338 FPKM. The TAGAP expression ([1]; NC 3.351, NC_P+I 128.498) was 4.352 FPKM, the CD55 expression ([1]; NC 3.587, NC_P+I 39.451) was 6.015 FPKM and the GTDC1 expression ([1]; NC 3.595, NC_P+I 10.378) was 4.629 FPKM. For the same compound, the KCNK5 expression ([1]; NC 3.84, NC_P+I 14.865) was 3.906 FPKM, the MYO1D expression ([1]; NC 4.114, NC_P+I 11.118) was 4.59 FPKM and the RDH10 expression ([1]; NC 4.125, NC_P+I 19.889) was 5.856 FPKM. The COL27A1 expression ([1]; NC 4.149, NC_P+I 17.216) was 4.463 FPKM, the PLK3 expression ([1]; NC 4.432, NC_P+I 14.807) was 5.257 FPKM and the NFATC1 expression ([1]; NC 4.511, NC_P+I 15.287) was 3.793 FPKM. The ASAP1 expression ([1]; NC 4.678, NC_P+I 18.37) was 7.765 FPKM, the GRK5 expression ([1]; NC 5.451, NC_P+I 21.464) was 8.481 FPKM and the CCDC64 expression ([1]; NC 5.477, NC_P+I 33.545) was 10.044 FPKM. For the same compound, the ATG14 expression ([1]; NC 5.727, NC_P+I 30.239) was 7.863 FPKM, the PELI1 expression ([1]; NC 5.755, NC_P+I 16.085) was 8.175 FPKM and the ARHGEF3 expression ([1]; NC 6.146, NC_P+I 31.337) was 8.637 FPKM. For the same compound, the PKIA expression ([1]; NC 6.444, NC_P+I 49.019) was 13.962 FPKM, the LTBP4 expression ([1]; NC 7.304, NC_P+I 33.466) was 8.427 FPKM and the LAMP3 expression ([1]; NC 8.064, NC_P+I 31.61) was 6.412 FPKM. The LAX1 expression ([1]; NC 8.344, NC_P+I 24) was 8.052 FPKM, the PTPN22 expression ([1]; NC 8.928, NC_P+I 45.38) was 6.37 FPKM and the VAMP1 expression ([1]; NC 9.566, NC_P+I 50.97) was 14.793 FPKM. The NINJ1 expression ([1]; NC 10.319, NC_P+I 76.622) was 11.769 FPKM, the KCNK1 expression ([1]; NC 10.828, NC_P+I 36.893) was 10.967 FPKM and the CD97 expression ([1]; NC 10.97, NC_P+I 49.481) was 19.394 FPKM. The FBXO34 expression ([1]; NC 11.735, NC_P+I 48.015) was 14.612 FPKM, the TBC1D20 expression ([1]; NC 11.844, NC_P+I 35.808) was 17.7 FPKM and the MIR6775 expression ([1]; NC 12.409, NC_P+I 50.527) was 19.643 FPKM. For the same compound, the AGK expression ([1]; NC 14.395, NC_P+I 39.056) was 14.029 FPKM, the FYN expression ([1]; NC 14.671, NC_P+I 58.084) was 16.523 FPKM and the MIR6821 expression ([1]; NC 17.553, NC_P+I 62.894) was 13.626 FPKM. It also gave an NDFIP1 expression ([1]; NC 19.638, NC_P+I 54.615) of 22.485 FPKM, a TBC1D4 expression ([1]; NC 20.739, NC_P+I 73.749) of 12.549 FPKM and an MAP2K3 expression ([1]; NC 21.676, NC_P+I 144.057) of 41.815 FPKM. The PTPN6 expression ([1]; NC 22.163, NC_P+I 77.092) was 20.906 FPKM, the FXYD5 expression ([1]; NC 25.643, NC_P+I 101.352) was 41.346 FPKM and the BCL2L1 expression ([1]; NC 31.375, NC_P+I 113.956) was 39.402 FPKM. For the same compound, the ATP6V1B2 expression ([1]; NC 33.172, NC_P+I 129.395) was 50.672 FPKM, the PIM3 expression ([1]; NC 37.434, NC_P+I 180.382) was 42.827 FPKM and the PPIF expression ([1]; NC 58.328, NC_P+I 188.301) was 50.291 FPKM. The “proportion of nuclear-localized tNFATC2” value [2] was “lowest”.
